Results reported in patent publication US6162803A, “Indol-3-yl-cyclohexyl amine derivatives for the treatment of depression” (American Home Products Corp., priority 1999, dated 2000).

How the values were obtained:
serotonin transporter = biological target: T1, serotonin transporter (Rattus norvegicus, UniProt P31652); experiment: [3H]-paroxetine binding, affinity for the serotonin transporter (rat frontal cortical membranes); parameters: species or system male Sprague-Dawley rats; details: 3H-paroxetine (0.1 nM); for Ki: 60 min at 25° C., read-out: Ki (nM) ST [^3 H]paroxetine
T1 construct: frontal cortical membranes prepared from male Sprague-Dawley rats; from tissue; host or cells: frontal cortical membranes of male Sprague-Dawley rats
T1 sequence (P31652 whole entry): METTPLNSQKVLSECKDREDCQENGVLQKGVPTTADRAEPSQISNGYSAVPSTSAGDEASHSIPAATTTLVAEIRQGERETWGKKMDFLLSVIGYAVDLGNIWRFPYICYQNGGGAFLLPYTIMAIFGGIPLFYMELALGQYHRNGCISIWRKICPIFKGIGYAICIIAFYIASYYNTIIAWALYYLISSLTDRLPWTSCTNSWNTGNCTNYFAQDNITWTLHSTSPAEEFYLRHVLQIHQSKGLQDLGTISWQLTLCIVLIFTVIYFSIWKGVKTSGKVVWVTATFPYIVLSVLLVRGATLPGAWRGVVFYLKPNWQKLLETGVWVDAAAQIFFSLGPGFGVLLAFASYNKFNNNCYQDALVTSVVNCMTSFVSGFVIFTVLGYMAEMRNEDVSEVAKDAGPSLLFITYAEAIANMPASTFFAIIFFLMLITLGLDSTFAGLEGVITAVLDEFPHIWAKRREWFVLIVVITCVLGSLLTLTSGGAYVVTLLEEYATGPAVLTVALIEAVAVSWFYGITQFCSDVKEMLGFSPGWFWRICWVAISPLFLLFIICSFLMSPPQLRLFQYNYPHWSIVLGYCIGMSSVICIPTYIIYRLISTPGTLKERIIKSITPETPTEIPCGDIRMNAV
Procedure: A protocol similar to that used by Cheetham et al., Neuropharmacol., 32:737 (1993) was used to determine the affinity of compounds for the serotonin transporter. Briefly, frontal cortical membranes prepared from male Sprague-Dawley rats were incubated with ^3 H-paroxetine (0.1 nM) for 60 min at 25° C. All tubes also contained either vehicle, test compound (one to eight concentrations), or a saturating concentration of fluoxetine (10 μM) to define […]. All reactions are terminated by the addition of ice cold Tris buffer followed by rapid filtration using a Tom Tech filtration device to separate bound from free ^3 H-paroxetine. Bound radioactivity was quantitated using a Wallac 1205 Beta Plate® counter. Nonlinear regression analysis was used to determine IC50 values which were converted to Ki values using the method of Cheng and Prusoff, Biochem. Pharmacol., 22:3099 (1973); Ki=IC50/((Radioligand conc.)/(1+KD)).

human 5-HT1A receptor = biological target: T2, human 5-HT1A receptor (Homo sapiens, UniProt P08908); experiment: [3H]8-OH-DPAT competition binding at human 5-HT1A receptor (5-HT1A.CHO cell membranes); details: [3H]8-OH-DPAT 1.5 nM; for inhibition at 1 µM: 0.5 h
T2 construct: expressed in transfected cells; host or cells: Chinese hamster ovary cells (5-HT1A.CHO), membranes
T2 sequence (P08908 1-422): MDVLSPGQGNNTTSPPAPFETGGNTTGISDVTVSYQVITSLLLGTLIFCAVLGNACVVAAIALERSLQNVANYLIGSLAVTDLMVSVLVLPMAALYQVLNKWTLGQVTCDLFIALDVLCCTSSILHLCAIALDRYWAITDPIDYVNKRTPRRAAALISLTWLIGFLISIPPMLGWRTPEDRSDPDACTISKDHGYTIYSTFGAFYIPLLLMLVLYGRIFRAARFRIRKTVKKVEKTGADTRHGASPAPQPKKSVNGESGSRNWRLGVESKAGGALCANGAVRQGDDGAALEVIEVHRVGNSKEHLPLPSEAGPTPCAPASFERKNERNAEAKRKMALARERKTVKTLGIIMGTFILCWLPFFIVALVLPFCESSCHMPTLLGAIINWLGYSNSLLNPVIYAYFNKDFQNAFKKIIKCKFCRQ
Procedure: The PCR cloning of the human 5-HT1A receptor subtype from a human genomic library has been described previously Chanda et al., Mol. Pharmacol., 43:516 (1993). A stable Chinese hamster ovary cell line expressing the human 5-HT1A receptor subtype (5-HT1A.CHO cells) was employed throughout this study. Cells were maintained in DMEM supplemented with 10% foetal calf serum, non-essential amino acids and penicillin/streptomycin.
Cells were grown to 95-100% confluency as a monolayer before membranes were harvested for binding studies. Cells were gently scraped from the culture plates, transferred to centrifuge tubes, and washed twice by centrifugation (2000 rpm for 10 min., 4° C.) in buffer (50 mM Tris; pH 7.5). The resulting pellets were aliquoted and placed at -80° C. On the day of assay, the cells were thawed on ice, and resuspended in buffer. Studies were conducted using [^3 H]8-OH-DPAT as the radioligand. The binding assay was performed in 96 well microtiter plates in a final total volume of 250 μL of buffer. Competition experiments were performed by using 7 concentrations of unlabelled drug and a final ligand concentration of 1.5 nM. Non-specific binding was determined in the presence of 10 μM 5HT. Saturation analysis was conducted by using [^3 H]8-OH-DPAT at concentrations ranging from 0.3-30 nM. Following a 30 minute incubation at room temperature, the reaction was terminated by the addition of ice cold buffer and rapid filtration using a M-96 Brandel Cell Harvester (Gaithersburg, Md) through a GF/B filter presoaked for 30 minutes in 0.5% polyethyleneimine.

Row | Structure (SMILES) | Ki (serotonin transporter) | inhibition at 1 µM (human 5-HT1A receptor) | inhibition at 1 µM (serotonin transporter; 1 h, @ 1 μM, read-out: ST [^3 H]paroxetine, % @ 1 μM) | Ki (human 5-HT1A receptor; 30 minute incubation at room temperature)
1 | Fc1ccc2[nH]cc([C@H]3CC[C@H](NCC4CNc5ccccc5O4)CC3)c2c1 (relative stereo) [1 (trans), (3,4-Dihydro-benzo[1,4]oxazine-2-ylmethyl)-[trans-4-(5-fluoro-1H-indol-3-yl)-cyclohexyl]-amine] | 24 nM | 44% | – | –
2 | Fc1ccc2[nH]cc([C@H]3CC[C@@H](NCC4COc5ccccc5N4)CC3)c2c1 (relative stereo) [2 (cis), (3,4-Dihydro-benzo[1,4]oxazine-3-ylmethyl)-[cis-4-(5-fluoro-1H-indol-3-yl)-cyclohexyl]-amine] | – | 9% | 34% | –
3 | Fc1ccc2[nH]cc([C@H]3CC[C@H](NCC4COc5ccccc5N4)CC3)c2c1 (relative stereo) [2 (trans), (3,4-Dihydro-benzo[1,4]oxazine-3-ylmethyl)-[trans-4-(5-fluoro-1H-indol-3-yl)-cyclohexyl]-amine] | 10 nM | 20% | – | –
4 | Fc1ccc2[nH]cc([C@H]3CC[C@@H](NCC4CNc5ccccc5O4)CC3)c2c1 (stereo partly drawn) [1 (cis), (3,4-Dihydro-benzo[1,4]oxazine-2-ylmethyl)-[cis-4-(5-floro-1H-indol-3-yl)-cyclohexyl]-amine] | 44 nM | – | – | 2430 nM
